Laboratory results published in patent US8877463B2, “Rhodanobacter ginsenosidimutans KCTC22231T-derived ginsenoside glycosidase, and use thereof” (Korea Research Institute of Bioscience and Biotechnology, priority 2009, dated 2014).

Assays:
Bgl3054 = assay: Substrate preference with chromogenic ONP and PNP substrates; type: biochemical, Rhodanobacter ginsenosidimutans KCTC22231T; details: 2.0 mM substrate, 37° C., 5 minutes; for activity of Bgl3054 for the substrate, rank order after ONP-β-D-fucopyranoside: descending order as listed: PNP-fucopyranoside, oNP-glucopyranoside, ONP-galactopyranoside, PNP-glucopyranoside, PNP-arabinopyranoside, PNP-galactopyranoside
Procedure: A free PNP-type substrate has a yellow color, but turns colorless when it binds with various sugars. The characteristics of glucosidase-type enzymes were analyzed using this principle. For example, PNPGlc is a colorless compound prepared by beta linkage of PNP and glucose, but free PNP catalyzed by beta-glucosidase has a yellow color. Thus, when a color change occurs by use of PNPGlc as a substrate, the enzyme is determined as a beta-glucosidase. In addition, when PNP-β-D-galactopyranoside is metabolized by an enzyme to produce yellow color, it is determined as β-D-galactopyranosidase. The color becomes darker according to characteristics and concentrations of the substrate, and thus it is possible to measure the concentration of the enzyme using a spectrometer.
1 activity unit was defined as the release of o-nitrophenol or p-nitrophenol per minute. For analysis of substrate preference, 2.0 mM chromogenic ONP and PNP (p-nitrophenyl) were used as the substrates, and incubated in 50 mM sodium phosphate buffer at 37° C. for 5 minutes.
The analyzed substrates (Sigma) were PNP-β-D-glucopyranoside, PNP-β-D-galactopyranoside, PNP-β-D-fucopyranoside, PNP-N-acetyl-β-D-glucosaminide, PNP-β-L-arabinopyranoside, PNP-β-D-mannopyronoside, PNP-β-D-xylopyranoside, PNP-β-D-glucopyranoside, PNP-β-L-arabinofuranoside, PNP-β-L-arabinopyranoside, PNP-β-D-rhamnopyranoside, PNP-β-D-mannopyranoside, and PNP-β-D-xylopyranoside, and o-nitrophenol[ONP]-β-D-glucopyranoside, ONP-β-D-galactopyranoside, ONP-β-D-fucopyranoside, and ONP-β-D-galactopyranoside.

[1] = test system: ginsenoside glycosidase (Bgl3054); assay: Kinetic studies of pNPGlc hydrolysis (Km, Vmax); type: biochemical, Rhodanobacter ginsenosidimutans KCTC22231T; details: pNPGlc 0.1 mM to 0.6 mM, 37° C., 20 minutes, absorbance 405 nm
Procedure: Further, kinetic studies were performed with freshly purified enzyme using pNPGlc (p-nitrophenyl-β-D-glucopyranoside; Sigma) at the concentrations of from 0.1 mM to 0.6 mM. Its absorbance at 405 nm was monitored at 37° C. for 20 minutes. The resulting data were used to determine Km and Vmax using the Enzyme Kinetics Program reported by Cleland.
Km and Vmax for the hydrolysis of pNPGlc (p-nitrophenyl-β-D-glucopyranoside; Sigma) by ginsenoside glycosidase were calculated using the Enzyme Kinetics Program reported by Cleland.

[2] = molecular target: ginsenoside glycosidase (Bgl3054) (Microbacterium sp. Gsoil167, UniProt L0ELG0); assay: Metal and chemical agent effects on enzymatic activity; type: biochemical, Rhodanobacter ginsenosidimutans KCTC22231T; details: at the concentration of 10 mM or more; room temperature 30 minutes; pNPGlc substrate
Procedure: Specific activity was measured using 90 μl of 50 mM sodium phosphate buffer containing 2.0 mM pNPGlc (p-nitrophenyl-β-D-glucopyranoside; Sigma) at pH 7.0, and 10 μl of the diluted purified enzyme was treated at 37° C. for 20 minutes before initiation of the reaction, followed by incubation. 0.1 ml of 1 M Na2CO3 was treated for 5 minutes to terminate the reaction, and the concentration of p-nitrophenol was immediately measured at 405 nm. One unit of activity was defined as the amount of enzyme that released 1 μmol of p-nitrophenol per minute. Specific activity is expressed in units per milligram protein. Protein concentration was measured using a Bio-Rad protein staining reagent according to the protocol. All analyses were performed at least three times.
Ginsenoside glycosidase was incubated at room temperature for 30 minutes in 1 mM and 10 mM (final concentration) of ZnCl2, MnCl2, CaCl2, CoCl2, MgCl2, EDTA, NaCl, KCl, CuCl2, DTT, SDS, and mercaptoethanol, and pNPGlc (p-nitrophenyl-β-D-glucopyranoside; Sigma) was used as a substrate to measure the activity. The resulting value was represented as a percentage to the obtained activity upon lack of the compounds, and is shown in Table 1.

[3] = test system: Bgl3054 ginsenoside glycosidase; assay: Specificity and selectivity of the enzyme for hydrolysis of ginsenosides (TLC, HPLC, NMR); type: biochemical, Rhodanobacter ginsenosidimutans KCTC22231T; details: 0.2U enzyme, 50 mM sodium phosphate buffer pH 7.0, 0.1% (w/v) substrate, 37° C.
Procedure: In order to analyze the specificity and selectivity of the enzyme for the hydrolysis of glucose at the C-3 and C-20 positions of ginsenoside, ginsenoside Rb1, Rb2, Rc, Rd, and Rg3 were used as the substrates. Each reaction mixture containing 0.2U enzyme, 50 mM sodium phosphate buffer 0.1% (w/v) (pH 7.0), and the substrate was incubated at 37° C. Each sample was withdrawn at regular intervals, and an equal volume of water-saturated butanol was added to stop the reaction. The n-butanol fraction was evaporated to dryness, and residual material was dissolved in CH3OH and then examined by TLC HPLC or NMR analysis, and the results are shown in FIGS. 10, 11 and 12.

[4] = test system: ginsenoside glycosidase Bgl3054; assay: Reaction of expressed ginsenoside glycosidase with Rb1 solution, TLC analysis; type: biochemical, Rhodanobacter ginsenosidimutans KCTC22231T; details: 1 mg/ml Rb1 solution in 50 mM sodium phosphate
Procedure: E.coil C41 (DE3) containing overexpressed plasmid was cultured in LB-ampicillin media at 37° C. when the OD value at 600 nm reached 0.6, and treated with 0.5 mM isopropyl-β-D-thiogalactopyranoside for 12 hours to induce protein expression. The bacterial cells were obtained by centrifugation at 4° C. and 5,000×g for 20 minutes. The cell pellet was resuspended in a solution (suspension) consisting of 50 mM sodium phosphate, 5 mM EDTA, and 1% Triton X-100 (pH 7.0) and subjected to ultrasonification. Ginsenoside glycosidase was completely hydrated without formation of insoluble precipitate, and ginsenoside glycosidase was reacted with 1 mg/ml Rb1 solution in 50 mM sodium phosphate, and TLC analysis was performed.

[5] = type: biochemical; details: 2.0 mM pNPGlc, 50 mM buffers
Procedure: The effect of pH on the enzymatic activity was measured. 2.0 mM pNPGlc (p-nitrophenyl-β-D-glucopyranoside; Sigma) was used as a substrate, and pH was adjusted using the following buffer (50 mM).
pH range of 2 to 10: KCl-HCl (pH 2), glycine-HCl (pH 3), sodium acetic acid (pH 4 and 5), sodium phosphate (pH 6 and 7), Tris-HCl (pH 8 and 9) and glycine-sodium hydroxide (pH 10) Further, the effect of pH on the enzymatic stability was measured. The enzyme was incubated in each of the above mentioned buffers at 4° C. for 24 hours, and then pHPGlc was analyzed in 50 mM potassium buffer to measure the enzymatic stability according to pH change. Residue activity was analyzed according to a standard analytical procedure, and the results are shown in FIG. 6 as an activity probability obtained at the optimum pH.

[6] = type: biochemical; details: 4-90° C., 2.0 mM pNPGlc, 50 mM potassium phosphate buffer, optimum pH, 5 minutes
Procedure: The effect of temperature on the enzymatic activity was measured. The temperature was adjusted between 4-90° C., and 2.0 mM pNPGlc (p-nitrophenyl-β-D-glucopyranoside; Sigma) was used to analyze the temperature-dependent activity in the 50 mM potassium phosphate buffer at the optimum pH for 5 minutes.
Further, the equivalent amount of enzyme was incubated in 50 mM potassium phosphate buffer within the same temperature range for 30 minutes to analyze the temperature stability. The sample was cooled in ice for 10 minutes, and the residual activity was measured according to a standard analytical procedure, and the results are shown in FIG. 7.

## O=[N+]([O-])c1ccccc1O[C@@H]1O[C@H](CO)[C@H](O)[C@H](O)[C@H]1O [ONP-β-D-galactopyranoside]
Bgl3054
  activity of Bgl3054 for the substrate, rank order after ONP-β-D-fucopyranoside: higher activity in this order

## O=[N+]([O-])c1ccccc1O[C@@H]1O[C@H](CO)[C@@H](O)[C@H](O)[C@H]1O [oNP-β-D-glucopyranoside, o-nitrophenol[ONP]-β-D-glucopyranoside]
Bgl3054
  activity of Bgl3054 for the substrate, rank order after ONP-β-D-fucopyranoside: higher activity in this order

## C[C@H]1O[C@@H](Oc2ccc([N+](=O)[O-])cc2)[C@H](O)[C@@H](O)[C@H]1O [PNP-β-D-fucopyranoside]
Bgl3054
  activity of Bgl3054 for the substrate, rank order after ONP-β-D-fucopyranoside: higher activity in this order

## C[C@H]1O[C@@H](Oc2ccccc2[N+](=O)[O-])[C@H](O)[C@@H](O)[C@H]1O [ONP-β-D-fucopyranoside]
Bgl3054; 50 mM sodium phosphate buffer
  activity of Bgl3054 for the substrate (substrate preference): highest activity

## O=[N+]([O-])c1ccc(O[C@@H]2O[C@H](CO)[C@@H](O)[C@H](O)[C@H]2O)cc1 [pNPGlc, p-nitrophenyl-β-D-glucopyranoside]
Bgl3054
  activity of Bgl3054 for the substrate, rank order after ONP-β-D-fucopyranoside: higher activity in this order
[1]
  Vmax for the hydrolysis of pNPGlc by ginsenoside glycosidase: 0.3177(±0.01654) mmol*min−1*mg of protein-1

## CCCCCCCCCCCCOS(=O)(=O)[O-].[Na+] [SDS]
[2]
  effect on the enzymatic activity: inhibitory effect

## CC(C)=CCC[C@](C)(O[C@@H]1O[C@H](CO[C@@H]2O[C@@H](CO)[C@H](O)[C@H]2O)[C@@H](O)[C@H](O)[C@H]1O)[C@H]1CC[C@]2(C)[C@@H]1[C@H](O)C[C@@H]1[C@@]3(C)CC[C@H](O[C@@H]4O[C@H](CO)[C@@H](O)[C@H](O)[C@H]4O[C@@H]4O[C@H](CO)[C@@H](O)[C@H](O)[C@H]4O)C(C)(C)[C@@H]3CC[C@]12C [Ginsenoside Rc, ginsenoside Rc]
[3]
  bioconversion of the ginsenoside substrate by the enzyme: converted into compound Mc1

## CC(C)=CCC[C@](C)(O[C@@H]1O[C@H](CO[C@@H]2OC[C@H](O)[C@H](O)[C@H]2O)[C@@H](O)[C@H](O)[C@H]1O)[C@H]1CC[C@]2(C)[C@@H]1[C@H](O)C[C@@H]1[C@@]3(C)CC[C@H](O[C@@H]4O[C@H](CO)[C@@H](O)[C@H](O)[C@H]4O[C@@H]4O[C@H](CO)[C@@H](O)[C@H](O)[C@H]4O)C(C)(C)[C@@H]3CC[C@]12C [Rb2, ginsenoside Rb2]
[3]
  bioconversion of the ginsenoside substrate by the enzyme: converted into Rd

## O=[N+]([O-])c1ccc(O[C@@H]2O[C@H](CO)[C@H](O)[C@H](O)[C@H]2O)cc1 [PNP-β-D-galactopyranoside]
Bgl3054
  activity of Bgl3054 for the substrate, rank order after ONP-β-D-fucopyranoside: higher activity in this order

## CC(C)=CCC[C@](C)(O[C@@H]1O[C@H](CO)[C@@H](O)[C@H](O)[C@H]1O)[C@H]1CC[C@]2(C)[C@@H]1[C@H](O)C[C@@H]1[C@@]3(C)CC[C@H](O[C@@H]4O[C@H](CO)[C@@H](O)[C@H](O)[C@H]4O[C@@H]4O[C@H](CO)[C@@H](O)[C@H](O)[C@H]4O)C(C)(C)[C@@H]3CC[C@]12C [Rd, ginsenoside Rd]
[3]
  bioconversion of the ginsenoside substrate by the enzyme: converted into F2

## CC(C)=CCC[C@](C)(O[C@@H]1O[C@H](CO[C@@H]2O[C@H](CO)[C@@H](O)[C@H](O)[C@H]2O)[C@@H](O)[C@H](O)[C@H]1O)[C@H]1CC[C@]2(C)[C@@H]1[C@H](O)C[C@@H]1[C@@]3(C)CC[C@H](O[C@@H]4O[C@H](CO)[C@@H](O)[C@H](O)[C@H]4O[C@@H]4O[C@H](CO)[C@@H](O)[C@H](O)[C@H]4O)C(C)(C)[C@@H]3CC[C@]12C [Ginsenoside Rb1, ginsenoside Rb1]
[3]
  bioconversion of the ginsenoside substrate by the enzyme: converted into Rd
[4]
  conversion of ginsenoside by Bgl3054 (TLC): into F2 via Rd

## O=[N+]([O-])c1ccc(O[C@H]2OC[C@H](O)[C@H](O)[C@H]2O)cc1 [PNP-β-L-arabinopyranoside]
Bgl3054
  activity of Bgl3054 for the substrate, rank order after ONP-β-D-fucopyranoside: higher activity in this order

B1: Bgl3054: Rhodanobacter ginsenosidimutans KCTC22231T-derived ginsenoside glycosidase protein, 433 amino acids, SEQ ID NO. 2 (protein)
chain: GLGRRRASMMRGTPMTNPFPQDFLWGVATAGHQVEGNNVNSDVWFLEHLPGTIFAEPSGDAVDHYHRYREDIALIAGLGFTSYRFSVEWARIEPEEGHFSVAALDHYKRVLEACREHGLTPVVTFHHFASPLWLLRSGGWEGERTPELFARYCGRVMAHLGDLIGVACTLNEPNLPWLLESFGIGGEAPENRGKVPMWAAAAQRLGVDASTVAPFQFCSTEAGFNVKLAAHKAATEAIKAHRPDLRVGWTLANSDIQSVPGGEEIAAQVRRDVNERFLEASRGDDFVGIQTYGRTVYGPDGHAPAPEGVAVNQMGEEIYPQALEATIREAWRVAGIPVMVTENGLATEDDTQRVAYLRTAVDGVASCLADGIDVRGYIAWTAFDNFEWIFGYGPKFGLIAVDRSTQERTPKESARWLGNFARQQAPAEAPQPA
modifications: Bgl3054
[5]
  pH of highest activity: 7.0
[6]
  temperature of maximum activity: 40-55 °C
